Tests used:
[1] = tested on: healthy male alcohol drinkers; assay: Phase 1 study of compound (2) with ethanol: pharmacodynamics (mDEQ-5); type: in vivo, human
Text: The exploratory pharmacodynamic endpoints included maximum effect (Emax), maximum change from baseline (CFBmax), time to Emax (TEmax), and time-averaged area under the effect curve (TA_AUE), as applicable, derived from Modified 5-item Drug Effects Questionnaire (mDEQ-5) scores.
mDEQ-5 scores were summarized by timepoint and treatment using descriptive statistics. Derived endpoints (Emax, CFBmax, TEmax, TA_AUE, as applicable) were summarized by treatment using descriptive statistics. For each mDEQ-5-derived endpoint, an analysis of variance (ANOVA) was conducted to compare each of active doses to placebo with dose group as a factor. Results were presented in terms of LSMEANS, treatment differences in LSMEANS, 95% CI and p-values.
Ethanol consumption and number of EtOH doses consumed (i.e., number of drinks) during the repeat EtOH administration sessions were summarized using descriptive statistics.

hMAO-A = target: T1, hMAO-A (Homo sapiens, UniProt P21397); conditions: read-out: IC50 hMAO-A; cited from earlier work
T1 sequence (P21397 1-527): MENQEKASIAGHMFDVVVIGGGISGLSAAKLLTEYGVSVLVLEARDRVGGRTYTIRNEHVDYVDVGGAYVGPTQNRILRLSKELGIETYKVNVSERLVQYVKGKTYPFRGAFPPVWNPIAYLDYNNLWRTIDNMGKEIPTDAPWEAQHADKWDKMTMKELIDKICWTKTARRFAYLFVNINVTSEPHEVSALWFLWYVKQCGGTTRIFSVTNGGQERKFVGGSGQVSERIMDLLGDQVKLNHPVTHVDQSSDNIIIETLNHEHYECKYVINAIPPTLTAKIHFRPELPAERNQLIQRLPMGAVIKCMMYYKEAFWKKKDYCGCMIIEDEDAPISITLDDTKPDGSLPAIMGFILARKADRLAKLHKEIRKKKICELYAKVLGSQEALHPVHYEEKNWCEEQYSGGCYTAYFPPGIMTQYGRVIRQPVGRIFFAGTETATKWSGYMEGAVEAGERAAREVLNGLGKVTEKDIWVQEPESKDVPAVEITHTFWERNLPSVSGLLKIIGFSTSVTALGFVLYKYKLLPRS

hMAO-B = target: T2, hMAO-B (Homo sapiens, UniProt P27338); conditions: read-out: IC50 hMAO-B; cited from earlier work
T2 sequence (P27338 1-520): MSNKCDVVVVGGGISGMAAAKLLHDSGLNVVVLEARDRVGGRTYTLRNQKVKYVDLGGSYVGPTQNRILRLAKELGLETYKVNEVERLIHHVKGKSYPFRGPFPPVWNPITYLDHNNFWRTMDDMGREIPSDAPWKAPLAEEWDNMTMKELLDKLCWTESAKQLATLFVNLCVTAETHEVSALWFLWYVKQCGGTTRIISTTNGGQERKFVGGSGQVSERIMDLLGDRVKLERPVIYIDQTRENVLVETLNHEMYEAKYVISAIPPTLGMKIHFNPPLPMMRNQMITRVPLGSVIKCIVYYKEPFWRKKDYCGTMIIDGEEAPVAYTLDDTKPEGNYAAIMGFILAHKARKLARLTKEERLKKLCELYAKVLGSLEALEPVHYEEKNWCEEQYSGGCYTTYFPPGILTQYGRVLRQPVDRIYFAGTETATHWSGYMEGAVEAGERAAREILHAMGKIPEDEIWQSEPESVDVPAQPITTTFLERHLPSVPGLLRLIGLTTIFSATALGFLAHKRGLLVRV

## O=C(NCc1ccc(-c2ccn(COP(=O)(O)O)c(=O)c2)cc1)c1c(Cl)cccc1Cl [Compound (2), phosphoric acid mono-(4-{4-[(2,6-dichloro-benzoylamino)-methyl]-phenyl}-2-oxo-2H-pyridin-1-ylmethyl) ester]
[1]; 25-600 mg
  dose response on pharmacodynamic measures: did not show a consistent dose response
[1]; all dose levels vs placebo
  peak VAS scores: feeling any alcohol effects, feeling drunk, liking the effects of alcohol: Peak scores for placebo were higher than scores for all compound (2) dose levels
hMAO-A
  IC50: > 130 µM
hMAO-B
  IC50: > 130 µM

Reference: US20210220376A1, “ADDICTION TREATMENT OF AN ALCOHOL-CONSUMING PATIENT POPULATION” (Amygdala Neurosciences, Inc., priority 2018, published 2021)
